Measured values published in US20230203060A1 (GENFLEET THERAPEUTICS (SHANGHAI) INC., priority 2020, published 2023).
Read-outs that look alike come from different tables or passages of the source.

Assays:
[1] = tested on: phosphorylated ERK downstream of KRAS G12C in MIA PaCa2 cells; assay: Cell p-ERK detection experiment (HTRF) in MIA PaCa2; format: cell-based, human; settings: read-out: p-ERK IC50
Procedure, shortened: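 Phospho-ERK (T202/Y204) measured by HTRF after 30 min lysis and 4 h antibody incubation in MIA PaCa2 (KRAS G12C) cells, seeded at 2.5E4 per well and treated 2 h with compounds in 3.16-fold steps, final DMSO 0.1%. IC50 from a four-parameter fit of percent inhibition relative to DMSO and blank wells.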

[2] = tested on: KRAS G12C mutant NCI-H358 cells; assay: Cell proliferation inhibition experiment, 3D spheroid, CellTiter-Glo, NCI-H358; format: cell-based, human; settings: read-out: H358 IC50
Procedure, shortened: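 First, H358 (800/well) or A549 (400/well) cells are plated in 2% FBS medium and left overnight to form spheroids. Next, compound is added as a 3.16-fold gradient at 0.1% DMSO for 5 days. Finally, CellTiter-Glo signal is read and IC50 derived by four-parameter fitting.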

[3] = Homo sapiens, MIA PaCa-2, 2 h, MIA PaCa2 cells, 2 hours with compound, Advance ERK phospho-T202/Y204 HTRF kit
[4] = Homo sapiens, NCI-H358, 120 h, NCI-H358 (KRAS G12C mutant) 3D spheroid, 5 days with compound, CellTiter-Glo
[5] = MIA PaCa2 cells, 2 hours with compound, Advance ERK phospho-T202/Y204 HTRF kit
[6] = NCI-H358 (KRAS G12C mutant) 3D spheroid, 5 days with compound, CellTiter-Glo

IC50 [1, 3]	IC50 [2, 4]	IC50 [2, 6]	SMILES	further results
163 nM	31 nM		C=CC(=O)N1CCN2C(=O)c3c(Nc4c(C)ccnc4C(C)C)nc(-c4c(O)cccc4F)c(Cl)c3OC[C@H]2C1 [Z5, (6aR)-8-acryloyl-4-chloro-3-(2-fluoro-6-hydroxyphenyl)-1-((2-isopropyl-4-methylpyridin-3-yl)amino)-6,6a,7,8,9,10-hexahydro-12H-pyrazino[2,1-c]pyrido[3,4-f][1,4]oxazepin-12-one]	
13 nM	1 nM		C=CC(=O)N1CCN2C(=O)c3c(N4C[C@@H](O)CC4(C)C)nc(-c4c(O)cccc4F)c(Cl)c3OC[C@H]2C1 (single isomer, unassigned) [Z81]	
104 nM	10.2 nM		C=CC(=O)N1CCN2C(=O)c3c(N4CCN(CCO)C[C@@H]4C)nc(-c4c(O)cccc4F)c(Cl)c3OC[C@H]2C1 [Z257, (6aR)-8-acryloyl-4-chloro-3-(2-fluoro-6-hydroxyphenyl)-1-((S)-4-(2-hydroxyethyl)-2-methylpiperazin-1-yl)-6,6a,7 ,8,9,10-hexahydro-12H-pyrazino[2,1-c]pyrido[3,4-f][1,4]oxazepin-12-one]	
43 nM	5 nM		C=CC(=O)N1CCN2C(=O)c3c(N4CC(O)CC4(C)C)nc(-c4c(O)cccc4F)c(F)c3OC[C@H]2C1 (stereo partly drawn) [Z256, (6aR)-8-acryloyl-4-fluoro-3-(2-fluoro-6-hydroxyphenyl)-1-(4-hydroxy-2,2-dimethylpyrrolidin-1-yl)-6,6a,7,8,9,10-hexahydro-12H-pyrazino[2,1-c]pyrido[3,4-f][1,4]oxazepin-12-one]	
23 nM	3 nM		C=CC(=O)N1CCN2C(=O)c3c(N4CC(=O)N(C)CC4C)nc(-c4c(O)cccc4F)c(Cl)c3OC[C@H]2C1 (stereo partly drawn) [Z221, (6aR)-8-acryloyl-4-chloro-1-(2,4-dimethyl-5-oxopiperazin-1-yl)-3-(2-fluoro-6-hydroxyphenyl)-6,6a,7,8,9,10-hexahydro-12H-pyrazino[2,1-c]pyrido[3,4-f][1,4]oxazepin-12-one]	
	22 nM		C=CC(=O)N1CCN2C(=O)c3c(N4CCOC5CC54)nc(-c4c(O)cccc4F)c(Cl)c3OC[C@H]2C1 (stereo partly drawn) [Z76, (6aR)-8-acryloyl-4-chloro-1-(2-oxa-5-azabicyclo[4.1.0]heptan-5-yl)-3-(2-fluoro-6-hydroxyphenyl)-6,6a,7,8,9,10-hexahydro-12H-pyrazino[2,1-c]pyrido[3,4-f][1,4]oxazepin-12-one]	
	29 nM		C=CC(=O)N1CCN2C(=O)c3c(NC(C)C)nc(-c4c(O)cccc4F)c(Cl)c3OC[C@H]2C1 [Z75, (6aR)-8-acryloyl-4-chloro-1-(isopropylamino)-3-(2-fluoro-6-hydroxyphenyl)-6,6a,7,8,9,10-hexahydro-12H-pyrazino[2,1-c]pyrido[3,4-f][1,4]oxazepin-12-one]	
136 nM	11 nM		C=CC(=O)N1CCN2C(=O)c3c(N4C[C@H](O)CC4(C)C)nc(-c4c(O)cccc4F)c(Cl)c3OC[C@H]2C1 (single isomer, unassigned) [Z82]	
	33 nM		C=CC(=O)N1CCN2C(=O)c3c(OC4CCN(C)CC4)nc(-c4c(O)cccc4F)c(Cl)c3OC[C@H]2C1 [Z61, (6aR)-8-acryloyl-4-chloro-3-(2-fluoro-6-hydroxyphenyl)-1-((1-methylpiperidin-4-yl)oxy)-6,6a,7,8,9,10-hexahydro-12H-pyrazino[2,1-c]pyrido[3,4-f][1,4]oxazepin-12-one]	
		4.1 nM	C=CC(=O)N1CCN2C(=O)c3c(N4CCN(C)C(C)C4C)nc(-c4c(O)cccc4F)c(Cl)c3OC[C@H]2C1 (stereo partly drawn) [Z308a, (6aR)-8-acryloyl-4-chloro-3-(2-fluoro-6-hydroxyphenyl)-1-(2,3,4-trimethylpiperazin-1-yl)-6,6a,7,8,9,10-hexahydro-12H-pyrazino[2,1-c]pyrido[3,4-f][1,4]oxazepin-12-one]	IC50 [1, 5]: 21 nM
59 nM	6.6 nM		C=CC(=O)N1CCN2C(=O)c3c(N4CCN(C)C(C)(C)C4)nc(-c4c(O)cccc4F)c(Cl)c3OC[C@H]2C1 [Z261, (6aR)-8-acryloyl-4-chloro-3-(2-fluoro-6-hydroxyphenyl)-1-(3,3,4-trimethylpiperazin-1-yl)-6,6a,7,8,9,10-hexahydro-12H-pyrazino[2,1-c]pyrido[3,4-f][1,4]oxazepin-12-one]	
138 nM	21 nM		C=CC(=O)N1CCN2C(=O)c3c(N4CCN(C)[C@H](C)C4)nc(-c4c(O)cccc4F)c(Cl)c3OC[C@H]2C1 [Z235, (6aR)-8-acryloyl-4-chloro-1-((R)-3,4-dimethylpiperazin-1-yl)-3-(2-fluoro-6-hydroxyphenyl)-6,6a,7,8,9,10-hexahydro-12H-pyrazino[2,1-c]pyrido[3,4-f][1,4]oxazepin-12-one]	
195 nM	29 nM		C=CC(=O)N1CCN2C(=O)c3c(N4C[C@H](O)C[C@@H]4C)nc(-c4c(O)cccc4F)c(Cl)c3OC[C@H]2C1 [Z259, (6aR)-8-acryloyl-4-chloro-3-(2-fluoro-6-hydroxyphenyl)-1-((2S,4R)-4-hydroxy-2-methylpyrrolidin-1-yl)-6,6a,7,8,9,10-hexahydro-12H-pyrazino[2,1-c]pyrido[3,4-f][1,4]oxazepin-12-one]	
	30 nM		C=CC(=O)N1CCN2C(=O)c3c(N4CCNC(C)C4C)nc(-c4c(O)cccc4F)c(Cl)c3OC[C@H]2C1 (stereo partly drawn) [Z308, (6aR)-8-acryloyl-4-chloro-1-(2,3-dimethylpiperazin-1-yl)-3-(2-fluoro-6-hydroxyphenyl)-6,6a,7,8,9, 10-hexahydro-12H-pyrazino[2,1-c]pyrido[3,4-f][1,4]oxazepin-12-one]	

The next lines start with the compound.

SMILES	IC50 [1, 3]	IC50 [2, 4]	IC50 [2, 6]	further results
C=CC(=O)N1CCN2C(=O)c3c(N4C[C@H](N(C)C)CC4(C)C)nc(-c4ccccc4)c(Cl)c3OC[C@H]2C1 (single isomer, unassigned) [Z655-2]			18 nM	IC50 [1, 5]: 196 nM
C=CC(=O)N1CCN2C(=O)c3c(N4CC(N(C)C5COC5)CC4(C)C)nc(-c4c(O)cccc4F)c(Cl)c3OC[C@H]2C1 (single isomer, unassigned) [Z331-2]			1.1 nM	IC50 [1, 5]: 7 nM
C=CC(=O)N1CCN2C(=O)c3c(N4CC(N(C)C5COC5)CC4(C)C)nc(-c4c(O)cccc4F)c(Cl)c3OC[C@H]2C1 (single isomer, unassigned) [Z331-1]	6 nM		0.5 nM	
C=CC(=O)N1CCN2C(=O)c3c(N4CCN(CC)C[C@@H]4C)nc(-c4c(O)cccc4F)c(Cl)c3OC[C@H]2C1 [Z236]				IC50 ([1]; Homo sapiens, MIA PaCa-2, 2 h): 25 nM; IC50 ([2]; Homo sapiens, NCI-H358, 120 h): 5.8 nM
C=CC(=O)N1CCN2C(=O)c3c(N4C[C@H](N(C)CCF)CC4(C)C)nc(-c4ccccc4F)c(Cl)c3OC[C@H]2C1 (single isomer, unassigned) [Z660-2]			10.8 nM	IC50 [1, 5]: 91 nM
C=CC(=O)N1CCN2C(=O)c3c(N4CC(=O)N(C)CC4C)nc(-c4c(O)cccc4F)c(Cl)c3OC[C@H]2C1 (single isomer, unassigned) [Z221-1]			2.7 nM	IC50 [1, 5]: 19 nM
C=CC(=O)N1CCN2C(=O)c3c(N4CCN(C)C[C@@H]4C)nc(-c4c(O)cccc4Cl)c(Cl)c3OC[C@H]2C1 (single isomer, unassigned) [Z455-2]			3.7 nM	IC50 [1, 5]: 33 nM
C=CC(=O)N1CCN2C(=O)c3c(N4C[C@H](NC)CC4(C)C)nc(-c4ccccc4F)c(Cl)c3OC[C@H]2C1 (single isomer, unassigned) [Z661-2]	538 nM			
